pIC50, pKi: −log10 of the molar value.

Assay [1] concerns the target Leukotriene B4 receptor 1 (Homo sapiens, UniProt Q15722). The experiment in a line: Binding affinity of [3H]LTB4 to receptors on intact human polymorphonuclear leukocytes.
The test system of another assay is U-937. Briefly: Antagonistic activity to inhibit the calcium mobilization response in human U-937 cells. In kind it is functional, cell-based.

Leukotriene B4 receptor 1, sequence (Q15722 whole entry): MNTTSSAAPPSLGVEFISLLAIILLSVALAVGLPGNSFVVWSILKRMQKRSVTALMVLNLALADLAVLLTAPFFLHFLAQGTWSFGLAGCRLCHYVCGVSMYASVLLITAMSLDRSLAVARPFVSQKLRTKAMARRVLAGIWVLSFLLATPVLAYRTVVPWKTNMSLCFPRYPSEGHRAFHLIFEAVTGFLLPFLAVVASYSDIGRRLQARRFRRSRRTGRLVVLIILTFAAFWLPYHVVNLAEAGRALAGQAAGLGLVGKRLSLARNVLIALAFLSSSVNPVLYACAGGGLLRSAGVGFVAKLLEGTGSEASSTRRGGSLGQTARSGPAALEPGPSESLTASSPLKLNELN

In assay [1], `COc1ccc(CCCCCCCCOc2ccc(C[S+]([O-])c3cccc(C(=O)O)c3)nc2/C=C/C(=O)O)cc1` (configuration not stated) showed a negative logarithm of the Ki (pKi) of 6.82. Also, in the assay on U-937, the pIC50 was 5.96.

In the case of `COc1ccc(CCCCCCOc2ccc(CC(O)c3cccc(C(=O)O)c3)nc2/C=C/C(=O)O)cc1` (configuration not stated), the pKi in assay [1] is 6.78. For the same compound, the pIC50 with U-937 is 5.40.

Turning to `CCCCCCCCCCOc1ccc(CC(O)c2cccc(C(=O)O)c2)nc1CCC(=O)O` (configuration not stated), the negative-log Ki (pKi) in assay [1] was 6.37. Further, the pIC50 in the assay on U-937 is 5.47.

`COc1ccc(CCCCCCCCOc2ccc(CSc3cccc(NC(=O)C(=O)O)c3)nc2/C=C/C(=O)O)cc1` had a negative-log Ki (pKi) in assay [1] of 7.14. The pIC50 in the assay on U-937 was 6.32. For `COc1ccc(CCCCCCCCOc2ccc(COc3cccc(C(=O)O)c3)[n+]([O-])c2/C=C/C(=O)O)cc1` the same measures were 6.82 and 6.05.

Take `COc1ccc(CCCCCCCCOc2ccc(CSc3cccc(C(=O)O)c3)nc2/C=C/C(=O)O)cc1`: the negative logarithm of the Ki (pKi) in assay [1] was 7.10. In addition, the pIC50 with U-937 was 6.41. `Nc1cccc([S+]([O-])Cc2ccc(OCCCCCCCCc3ccc(C(F)(F)F)cc3)c(/C=C/C(=O)O)n2)c1` (configuration not stated): the negative-log Ki (pKi) in assay [1] is 7.85. Moreover, the pIC50 in the assay on U-937 is 7.27. Compound `COc1ccc(CCCCCCCCOc2ccc(CSc3cccc(NS(=O)(=O)c4ccccc4)c3)nc2/C=C/C(=O)O)cc1` showed a pKi in assay [1] of 6.22. The pIC50 in the assay with U-937 is 6.62.

Compound `COc1ccc(CCCCCCCCOc2ccc(C[S+]([O-])c3cccc(CS(=O)(=O)C(F)(F)F)c3)nc2/C=C/C(=O)O)cc1` (configuration not stated) had a negative logarithm of the Ki (pKi) in assay [1] of 6.65. Moreover, in the assay with U-937, the negative-log IC50 (pIC50) is 6.26. For the compound `CCCCCCCCCCOc1ccc(CC(O)c2cccc(C(=O)O)c2)nc1/C=C/C(=O)O` (configuration not stated), the pIC50 in the assay on U-937 is 5.48. With `Nc1cccc(SCc2ccc(OCCCCCCCCc3ccc(C(F)(F)F)cc3)c(/C=C/C(=O)O)n2)c1`, in assay [1], the negative-log Ki (pKi) was 7.37. Besides, the pIC50 with U-937 was 7.11. For `COc1ccc(CCCCCCCCOc2ccc(C[S+]([O-])c3cccc(N(C)C)c3)nc2/C=C/C(=O)O)cc1` (configuration not stated), the negative logarithm of the Ki (pKi) in assay [1] is 6.61. The negative logarithm of the IC50 (pIC50) in the assay with U-937 is 6.09.

For `COc1ccc(CCCCCCCCOc2ccc(C[S+]([O-])c3cccc(NS(=O)(=O)c4ccccc4)c3)nc2/C=C/C(=O)O)cc1` (configuration not stated), in assay [1], the pKi is 6.83. Besides, in the assay on U-937, the negative logarithm of the IC50 (pIC50) was 6.82.

In assay [1], `COc1ccc(CCCCCCCCOc2ccc(CSc3ccccc3)nc2/C=C/C(=O)O)cc1` showed a pKi of 7.13. Further, the negative logarithm of the IC50 (pIC50) in the assay with U-937 was 6.96. With `COc1ccc(CCCCCCCCOc2ccc(CSc3cccc(NS(=O)(=O)C(F)(F)F)c3)nc2/C=C/C(=O)O)cc1`, the pKi in assay [1] was 6.55. The pIC50 with U-937 was 6.47. For `COc1ccc(CCCCCCCCOc2ccc(C[S+]([O-])c3cccc(N)c3)nc2/C=C/C(=O)O)cc1` (configuration not stated) the same measures were 8.33 and 7.13.

The compound `COc1ccc(CCCCCCCCOc2ccc(CSc3cccc(N)c3)nc2/C=C/C(=O)O)cc1` had a pKi in assay [1] of 7.47. Besides, in the assay on U-937, the negative logarithm of the IC50 (pIC50) is 7.27. For `COc1ccc(CCCCCCCCOc2ccc(CSc3cccc(OC)c3)nc2/C=C/C(=O)O)cc1`, the pKi in assay [1] is 6.72. In addition, in the assay with U-937, the pIC50 was 6.54. For `COc1ccc(CCCCCCCCOc2ccc(CS(=O)(=O)c3cccc(N)c3)nc2/C=C/C(=O)O)cc1` the same measures were 7.44 and 6.82. For `Nc1cccc([S+]([O-])Cc2ccc(OCCCCCCCCc3ccc(F)cc3)c(/C=C/C(=O)O)n2)c1` (configuration not stated) the same measures were 7.92 and 6.96.

In assay [1], `COc1ccc(CCCCCCCCOc2ccc(C[S+]([O-])c3ccccc3)nc2/C=C/C(=O)O)cc1` (configuration not stated) gave a pKi of 7.43. Also, the pIC50 in the assay with U-937 was 6.55. The matching figures for `CCCCCCCCCCCCOc1ccc(C[S+]([O-])c2ccc(C(=O)O)cc2)nc1/C=C/C(=O)O` (configuration not stated): 6.60 and 5.89. As to `COc1ccc(CCCCCCCCOc2ccc(CSc3cccc(N(C)C)c3)nc2/C=C/C(=O)O)cc1`, the pKi in assay [1] is 6.10. Also, in the assay on U-937, the negative logarithm of the IC50 (pIC50) was 6.34. For the compound `COc1ccc(CCCCCCCCOc2ccc(C[S+]([O-])c3cccc(OC)c3)nc2/C=C/C(=O)O)cc1` (configuration not stated), in assay [1], the pKi was 6.63. In the assay on U-937, the negative-log IC50 (pIC50) is 6.52.

In assay [1], `CCCCCCCCC(O)/C=C/c1cccc(CC(O)c2cccc(C(=O)O)c2)n1` (configuration not stated) had a pKi of 9.00. Regarding `CCCCCCCCCCCCOc1ccc(C[S+]([O-])c2ccccc2C(=O)O)nc1/C=C/C(=O)O` (configuration not stated), in assay [1], the negative-log Ki (pKi) is 6.32. Moreover, the negative-log IC50 (pIC50) in the assay on U-937 is 5.82.

Consider `CCCCCCCCCCCCOc1ccc(C[S+]([O-])c2cccc(C(=O)O)c2)nc1/C=C/C(=O)O` (configuration not stated), for which the negative logarithm of the Ki (pKi) in assay [1] was 6.89. The negative-log IC50 (pIC50) in the assay with U-937 is 6.03.

In the case of `CCCCCCCCCCCCOc1ccc(COc2cccc(C(=O)O)c2)nc1/C=C/C(=O)O`, in assay [1], the pKi was 5.95. In addition, the pIC50 in the assay with U-937 was 6.24. For the compound `Nc1cccc(SCc2ccc(OCCCCCCCCc3ccccc3)c(/C=C/C(=O)O)n2)c1`, in assay [1], the pKi is 7.44. Moreover, the pIC50 in the assay on U-937 is 7.22. `Nc1cccc([S+]([O-])Cc2ccc(OCCCCCCCCc3ccccc3)c(/C=C/C(=O)O)n2)c1` (configuration not stated) showed a pKi in assay [1] of 7.96. Moreover, the negative-log IC50 (pIC50) in the assay on U-937 was 6.80. With `CCCCCCCCCCCCOc1ccc(COc2cccc(C(=O)O)c2)[n+]([O-])c1/C=C/C(=O)O`, the pKi in assay [1] was 6.47. Besides, the negative-log IC50 (pIC50) with U-937 was 6.00.

Consider `CCCCCCCCCCCCOc1ccc(CS(=O)(=O)c2cccc(C(=O)O)c2)nc1/C=C/C(=O)O`, for which, in assay [1], the pKi was 6.83. Also, the negative-log IC50 (pIC50) in the assay with U-937 was 5.97.

As a reminder, the pKi is −log10 of the Ki, conventionally taken in molar units. Broadly, the pIC50 is −log10 of the IC50, conventionally taken in molar units.

(Values after ChEMBL document CHEMBL1127077, “Trisubstituted pyridine leukotriene B4 receptor antagonists: synthesis and structure-activity relationships” (J Med Chem, 1993).)
